{"source": "patent US20210228748A1", "about": "“IN VIVO STABLE HG-197(M) COMPOUNDS, METHOD FOR THE PRODUCTION THEREOF AND USE THEREOF IN NUCLEAR MEDICAL DIAGNOSTICS AND ENDORADIONUCLIDE THERAPY (THERANOSTICS)” (HELMHOLTZ-ZENTRUM DRESDEN - […].V., priority 2017, published 2021)", "key": {"Volatility test": {"assay": "Volatility test", "type": "physicochemical", "conditions": "70% EtOH(aq), 50° C., dry nitrogen stream 1 h", "description": "(§1) After pH-adjustment of the hydrochloric acid solution of [197(m)Hg]HgCl2(aq) (˜55 MBq, 20 μl, pH 1), by addition of 0.5 M HEPES buffer (pH 8, 200 μl), EtOH (200 μl), 6 M NaOH(aq) (11 μl), and 1 M NaOH(aq) (2 μl), a 1 mg/ml acetonitrile solution of 2 (12 μl, 14 nmol) was added. This solution (pH 6, 445 μl) was mixed at 50° C. for 1 h. The radiochemical yield of 3* was determined by radio-TLC (iTLC ACN+0.1% TFA, RP-18 TLC 9:1 ACN: H2O+0.1% TFA) as >95%. Purification and solvent change were carried out with a C8 cartridge (500 mg). After washing with water the major product was eluted with 7:3 EtOH:H2O from the cartridge. The last 2 fractions contained ˜16 MBq and ˜10 MBq respectively. The ˜16 MBq fraction had 3×200 μl extracted (˜4 MBq each). These fractions then had 1 competitor added each (1 mg/ml, 10 μl): tris(2-mercaptoethyl)ammonium oxalate, glutathione and Na2S. The mixtures were left at rt and checked by radio-TLC after 5 min, 1 h and 2 d, the only degradation observed was ˜4% after 2 d in the Na2S mixture. The ˜10 MBq fraction was divided into 2×500 μl. The first lot was used to test the stability of 3* in the highly aqueous solvent system necessary for biodistribution studies, this was diluted from 70% EtOH(aq) to ˜10% EtOH(aq) with brine (3.5 ml). […]"}, "[1]": {"assay": "Human serum stability assay (SDS-PAGE autoradiograph)", "type": "in vitro ADME", "conditions": "incubated with human serum 1 h at 37° C., pH 7.4, non-reducing SDS-PAGE", "description": "FIGS. 4A and 4B show stability testing for compound 3*, namely the analysis of ^197(m)Hg-incorporation into human serum proteins by SDS-PAGE (20% SDS-polyacrylamide gel autoradiograph (FIG. 4A), showing 197(m)Hg-labeled bands, and Coomassie staining (FIG. 4B), showing bands of human serum proteins; Lane 1: ^197(m)>Hg-radiolabeled bispidine 3*. Lane 2: ^197(m)Hg-radiolabeled EDTA. M: molecular-weight size marker).\nHuman serum “off the clot” (5 ml) stored at −20° C. was slowly thawed on ice and filtered using syringe filters with a pore size of 0.2 μm. Two aliquots of filtered serum (2×220 μl) were mixed with 1 M HEPES/NaOH buffer (pH 7.4, 2×45 μl). Separately, 2×200 μl solution (1:1 EtOH:H2O, pH 6) of 3* (˜4 MBq) and 197(m)HgCl2/EDTA (˜5 MBq, 10 μg EDTA) had 1 M HEPES/NaOH buffer (pH 8.0, 2×20 μl) added to increase solution pH to 7.4. Then 135 μl of each 197(m)Hg-radiolabeled sample was added to one of the previously prepared serum/buffer solutions (265 μl) and incubated for 1 h at 37° C. 50 μl aliquots were then taken and mixed with 50 μl of 2× Laemmli sample buffer (Bio-Rad Laboratories), N.B. no reducing agent was added and the samples were not heated. The mixtures were then analyzed by non-reducing SDS-PAGE with acrylamide concentrations of 5% in the stacking gel and 20% in the resolving gel. 2 μl of each sample were loaded into each gel well. […]"}, "[2]": {"assay": "Stability in highly aqueous solvent system for biodistribution studies", "type": "physicochemical", "conditions": "diluted from 70% EtOH(aq) to ~10% EtOH(aq) with brine", "description": "as §1"}, "[3]": {"assay": "Stability test with excess of sulfur-containing competitors (radio-TLC)", "type": "physicochemical", "description": "as §1"}, "[4]": {"assay": "Biodistribution in healthy male Wistar rats", "type": "in vivo", "source_text": "FIG. 5 show biodistribution of compound 3* in healthy male Wistar rats (^197(m)HgCl2: n=4, 3*: n=8; ˜300 kBq per animal; all other organs measured well below 1% ID/g)."}}, "note": "Entries after “also recorded” stand apart in the source; their conditions may differ."}
{"smiles": "CCCC[C@]1(O)C2(c3ccccc3)CN3Cc4cccc[c]4[Hg][c]4ccccc4CN(C2)C[C@]1(c1ccccc1)C3", "note": "[3*, 9-butyl-8,10-diphenyl-6,10:8,12-dimethanodibenzo[c,f][1,9]diaza[5]mercuracyclotetradecan-9-ol]", "values": [{"measurement": "loss of activity by evaporation (volatility)", "setting": "Volatility test", "value": "no observable loss by evaporation"}, {"measurement": "197(m)Hg release (demetallation) and binding to serum proteins", "setting": "[1]", "value": "there isn't any observable protein interaction; also recorded: neither 197(m)Hg release (demetallation) nor binding to serum proteins is detectable"}, {"measurement": "stability of the solution by radio-TLC", "setting": "[2]", "value": "good stability"}, {"measurement": "degradation observed by radio-TLC", "setting": "[3]; Na2S competitor (1 mg/ml, 10 μl), rt, after 2 d", "value": "~4", "unit": "%"}, {"measurement": "chemical stability against sulfur-containing competitors", "setting": "[3]; excess of glutathione, tris(2-mercaptoethyl)ammonium oxalate and sodium sulfide", "value": "high chemical stability"}, {"measurement": "biodistribution, all other organs (not shown in FIG. 5)", "setting": "[4]; healthy male Wistar rats, ~300 kBq per animal", "value": "below 1 % ID/g"}, {"measurement": "demetallation and retention in the kidneys", "setting": "[4]; healthy rats, biodistribution and SPECT", "value": "no indication of demetallation and retention in the kidneys"}, {"measurement": "organ / renal clearance", "setting": "[4]; healthy rats, normal micturition during a 24 h period", "value": "good organ clearance; also recorded: good renal clearance"}]}
